Like-named read-outs stand apart in the source and are kept apart here. Positions of bridges follow the written chain, without caps; N, C: chain ends. Non-standard residues stand in square brackets, D forms with d. Residues, ends and D or L forms follow the SMILES beside them. Arg(Me2s) = CN=C(NC)NCCC[C@H](N)C(=O)O
Assays:
Assay in all cases: cell-based
hNav1.7 [1] = target: T1, hNav1.7 (Homo sapiens, UniProt Q15858); conditions: Nav1.7 Use IC50
hNav1.5 [2] = target: T2, hNav1.5 (Homo sapiens, UniProt Q14524)
hNav1.5 [3] = target: T2, hNav1.5; remark: listed apart in the source
hNav1.3 = hNav1.3 (Homo sapiens, UniProt Q9NY46); conditions: IonWorks Quattro, read-out: IWQ Use Nav1.3
hNav1.3, sequence (Q9NY46 whole entry, looked up): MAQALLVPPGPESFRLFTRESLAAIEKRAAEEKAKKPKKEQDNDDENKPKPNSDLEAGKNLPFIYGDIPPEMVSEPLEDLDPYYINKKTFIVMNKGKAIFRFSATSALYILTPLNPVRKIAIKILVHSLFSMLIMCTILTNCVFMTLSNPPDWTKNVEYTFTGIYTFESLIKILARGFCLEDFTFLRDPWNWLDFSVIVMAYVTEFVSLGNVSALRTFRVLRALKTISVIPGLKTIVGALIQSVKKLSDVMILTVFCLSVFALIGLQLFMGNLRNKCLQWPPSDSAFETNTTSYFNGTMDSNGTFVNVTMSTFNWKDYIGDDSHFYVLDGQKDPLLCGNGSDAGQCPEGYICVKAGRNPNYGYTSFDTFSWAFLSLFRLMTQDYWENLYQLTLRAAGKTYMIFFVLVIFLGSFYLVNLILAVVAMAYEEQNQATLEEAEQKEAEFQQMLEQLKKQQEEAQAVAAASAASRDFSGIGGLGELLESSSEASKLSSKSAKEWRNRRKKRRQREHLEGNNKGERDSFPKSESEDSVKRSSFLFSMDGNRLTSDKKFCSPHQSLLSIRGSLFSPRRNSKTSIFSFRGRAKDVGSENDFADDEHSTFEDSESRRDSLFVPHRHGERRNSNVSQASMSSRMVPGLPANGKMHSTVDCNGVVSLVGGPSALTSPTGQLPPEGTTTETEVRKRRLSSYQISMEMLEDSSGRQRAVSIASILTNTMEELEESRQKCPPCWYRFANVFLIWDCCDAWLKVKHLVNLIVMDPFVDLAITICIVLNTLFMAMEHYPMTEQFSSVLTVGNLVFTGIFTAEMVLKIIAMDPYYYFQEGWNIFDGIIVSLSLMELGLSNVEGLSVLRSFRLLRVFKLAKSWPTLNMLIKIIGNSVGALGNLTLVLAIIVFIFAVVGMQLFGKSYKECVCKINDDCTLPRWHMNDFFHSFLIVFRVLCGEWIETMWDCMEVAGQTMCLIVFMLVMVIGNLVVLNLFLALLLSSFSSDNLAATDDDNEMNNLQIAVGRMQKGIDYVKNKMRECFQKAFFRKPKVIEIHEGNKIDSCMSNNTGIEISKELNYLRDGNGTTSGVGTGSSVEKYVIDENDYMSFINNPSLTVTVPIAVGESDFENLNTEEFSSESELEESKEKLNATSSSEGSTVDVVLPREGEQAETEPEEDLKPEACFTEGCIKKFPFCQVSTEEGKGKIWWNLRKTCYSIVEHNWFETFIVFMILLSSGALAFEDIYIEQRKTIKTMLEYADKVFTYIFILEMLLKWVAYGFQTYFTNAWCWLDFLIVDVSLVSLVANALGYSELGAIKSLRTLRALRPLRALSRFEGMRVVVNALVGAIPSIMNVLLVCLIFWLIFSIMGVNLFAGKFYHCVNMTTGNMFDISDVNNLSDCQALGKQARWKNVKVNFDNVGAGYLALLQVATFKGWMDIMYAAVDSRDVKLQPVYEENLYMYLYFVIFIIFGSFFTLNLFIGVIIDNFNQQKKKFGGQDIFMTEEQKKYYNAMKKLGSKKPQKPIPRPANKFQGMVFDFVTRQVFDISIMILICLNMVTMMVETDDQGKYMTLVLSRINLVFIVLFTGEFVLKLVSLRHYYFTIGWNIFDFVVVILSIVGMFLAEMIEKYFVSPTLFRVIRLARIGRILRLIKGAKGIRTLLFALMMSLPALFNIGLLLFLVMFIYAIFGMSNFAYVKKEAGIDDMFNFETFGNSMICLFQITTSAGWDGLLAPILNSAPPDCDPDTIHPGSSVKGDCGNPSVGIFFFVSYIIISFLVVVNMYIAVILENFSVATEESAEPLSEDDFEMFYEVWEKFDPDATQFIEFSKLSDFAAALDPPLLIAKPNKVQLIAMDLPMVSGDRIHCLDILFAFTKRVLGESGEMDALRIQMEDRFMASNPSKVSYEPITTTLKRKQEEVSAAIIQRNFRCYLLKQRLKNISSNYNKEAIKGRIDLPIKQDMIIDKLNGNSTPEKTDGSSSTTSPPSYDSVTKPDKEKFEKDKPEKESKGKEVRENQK

hNav1.7 [4] = target: T1, hNav1.7; assay type: cell-based
[5] = IonWorks Quattro, use-dependent block, hNav1.5, read-out: IWQ Use Nav1.5
[6] = IonWorks Quattro, use-dependent block, hNav1.7, read-out: IWQ Use Nav1.7
[7] = clamped to −110 mV, depolarized to −10 mV, 5 min after compound, n=2

T1 sequence (Q15858 whole entry, looked up): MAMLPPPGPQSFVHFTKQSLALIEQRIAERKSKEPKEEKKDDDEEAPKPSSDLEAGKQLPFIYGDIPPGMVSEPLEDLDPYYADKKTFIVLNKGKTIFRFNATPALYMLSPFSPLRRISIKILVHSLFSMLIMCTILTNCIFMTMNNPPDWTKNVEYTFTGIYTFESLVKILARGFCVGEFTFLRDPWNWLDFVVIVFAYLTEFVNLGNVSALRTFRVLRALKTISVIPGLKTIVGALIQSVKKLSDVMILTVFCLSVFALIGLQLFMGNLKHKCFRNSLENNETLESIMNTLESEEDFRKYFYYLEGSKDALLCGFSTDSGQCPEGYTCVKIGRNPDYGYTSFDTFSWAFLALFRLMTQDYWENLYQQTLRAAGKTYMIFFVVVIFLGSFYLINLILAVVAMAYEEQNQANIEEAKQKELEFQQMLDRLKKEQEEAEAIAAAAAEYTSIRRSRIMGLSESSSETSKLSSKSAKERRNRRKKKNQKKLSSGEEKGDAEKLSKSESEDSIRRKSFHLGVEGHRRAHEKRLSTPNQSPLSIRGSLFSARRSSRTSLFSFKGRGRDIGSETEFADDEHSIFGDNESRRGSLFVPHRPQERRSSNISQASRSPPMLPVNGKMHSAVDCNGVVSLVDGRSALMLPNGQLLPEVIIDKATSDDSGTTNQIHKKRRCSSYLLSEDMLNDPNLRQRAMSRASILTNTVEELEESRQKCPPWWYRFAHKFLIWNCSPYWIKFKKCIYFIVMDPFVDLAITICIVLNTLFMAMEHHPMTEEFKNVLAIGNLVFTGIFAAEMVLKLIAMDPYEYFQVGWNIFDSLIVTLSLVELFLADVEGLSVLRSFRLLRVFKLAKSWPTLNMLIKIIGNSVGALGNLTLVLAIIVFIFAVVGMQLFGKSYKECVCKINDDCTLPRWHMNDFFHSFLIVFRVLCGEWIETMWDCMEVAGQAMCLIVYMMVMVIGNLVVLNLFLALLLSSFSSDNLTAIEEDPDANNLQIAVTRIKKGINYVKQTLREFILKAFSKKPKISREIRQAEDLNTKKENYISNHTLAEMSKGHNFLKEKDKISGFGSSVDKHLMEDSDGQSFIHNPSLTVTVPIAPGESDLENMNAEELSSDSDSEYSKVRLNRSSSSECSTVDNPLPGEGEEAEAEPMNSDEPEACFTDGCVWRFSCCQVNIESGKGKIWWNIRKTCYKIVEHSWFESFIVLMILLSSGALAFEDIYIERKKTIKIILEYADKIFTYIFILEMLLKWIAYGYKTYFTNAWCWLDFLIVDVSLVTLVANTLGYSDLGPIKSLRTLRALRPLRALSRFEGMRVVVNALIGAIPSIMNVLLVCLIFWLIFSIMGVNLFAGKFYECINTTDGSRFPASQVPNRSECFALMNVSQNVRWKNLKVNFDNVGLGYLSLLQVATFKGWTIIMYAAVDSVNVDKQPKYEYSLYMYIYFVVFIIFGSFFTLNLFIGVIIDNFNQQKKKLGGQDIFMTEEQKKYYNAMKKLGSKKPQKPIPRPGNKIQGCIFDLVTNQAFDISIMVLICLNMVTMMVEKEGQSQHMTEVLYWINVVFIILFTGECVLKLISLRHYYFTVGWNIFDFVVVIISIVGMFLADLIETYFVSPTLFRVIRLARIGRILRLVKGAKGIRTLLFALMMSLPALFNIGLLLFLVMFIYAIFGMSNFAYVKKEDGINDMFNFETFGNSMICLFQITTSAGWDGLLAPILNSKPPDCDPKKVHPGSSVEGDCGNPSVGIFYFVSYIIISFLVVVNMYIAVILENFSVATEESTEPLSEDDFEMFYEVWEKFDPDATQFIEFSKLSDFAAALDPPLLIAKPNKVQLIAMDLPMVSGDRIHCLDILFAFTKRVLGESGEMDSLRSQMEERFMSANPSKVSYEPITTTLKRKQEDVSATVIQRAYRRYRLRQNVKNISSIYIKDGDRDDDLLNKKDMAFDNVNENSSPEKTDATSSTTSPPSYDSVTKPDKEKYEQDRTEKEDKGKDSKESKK

Row | Compound | IC50 (hNav1.7 [1]) | IC50 (hNav1.5 [2]; [5]) | IC50 (hNav1.5 [3]) | IC50 (hNav1.3; use-dependent block, hNav1.3) | IC50 (hNav1.7 [4]; [6]) | IC50 (hNav1.5 [2]; IWQ Use Nav1.5) | IC50 (hNav1.3; [7]) | IC50 (hNav1.7 [4]; IonWorks Quattro, clamped to −110 mV, depolarized to −10 mV, 5 min after compound, n=2, read-out: IWQ Use Nav1.7) | IC50 (hNav1.7 [4])
1 | CC[C@H](C)[C@@H]1NC(=O)[C@@H]2CSSC[C@@H]3NC(=O)[C@H](C(C)C)NC(=O)[C@H](CC(C)C)NC(=O)[C@H](CC(N)=O)NC(=O)[C@@H]4CCCN4C(=O)[C@H](CCCNC(=N)N)NC(=O)[C@H](CSSC[C@H](NC(=O)[C@@H](N)CC(=O)O)C(=O)N[C@@H](CC(C)C)C(=O)NCC(=O)N[C@@H](Cc4ccccc4)C(=O)N[C@@H](CCSC)C(=O)N[C@@H](CCCNC(=N)N)C(=O)N[C@@H](CCCCN(C)C)C(=O)N2)NC(=O)[C@H](CSSC[C@@H](C(=O)N[C@@H](CCCCN)C(=O)N[C@@H](Cc2ccc(O)cc2)C(=O)N[C@H](C(=O)N[C@@H](Cc2ccccc2)C(N)=O)C(C)C)NC(=O)[C@H](Cc2c[nH]c4ccccc24)NC(=O)[C@H](CCCCN)NC(=O)[C@H](Cc2c[nH]cn2)NC(=O)[C@H]([C@@H](C)O)NC(=O)[C@H](CCCNC(=N)N)NC(=O)[C@H](CO)NC3=O)NC(=O)[C@H](CCCCN)NC(=O)[C@H](CC(=O)O)NC(=O)[C@H](CC(N)=O)NC(=O)[C@H](CC(=O)O)NC(=O)[C@@H]2CCCN2C1=O [[K(Me2)8]GpTx-1(1-34)] | 4 nM | 9460 nM | > 10000 nM | 180 nM | 190 nM | – | – | – | –
2 | CC[C@H](C)[C@@H]1NC(=O)[C@@H]2CSSC[C@@H]3NC(=O)[C@H](C(C)C)NC(=O)[C@H](CC(C)C)NC(=O)[C@H](CC(N)=O)NC(=O)[C@@H]4CCCN4C(=O)[C@H](CCCNC(=N)N)NC(=O)[C@H](CSSC[C@H](NC(=O)[C@@H](N)CC(=O)O)C(=O)N[C@@H](C)C(=O)NCC(=O)N[C@@H](Cc4ccccc4)C(=O)N[C@@H](CCSC)C(=O)N[C@@H](CCCNC(=N)N)C(=O)N[C@@H](CCCCN)C(=O)N2)NC(=O)[C@H](CSSC[C@@H](C(=O)N[C@@H](CCCCN)C(=O)N[C@@H](Cc2ccc(O)cc2)C(=O)N[C@H](C(=O)N[C@@H](Cc2ccccc2)C(N)=O)C(C)C)NC(=O)[C@H](Cc2c[nH]c4ccccc24)NC(=O)[C@H](CCCCN)NC(=O)[C@H](Cc2cnc[nH]2)NC(=O)[C@H]([C@@H](C)O)NC(=O)[C@H](CCCNC(=N)N)NC(=O)[C@H](CO)NC3=O)NC(=O)[C@H](CCCCN)NC(=O)[C@H](CC(=O)O)NC(=O)[C@H](CC(N)=O)NC(=O)[C@H](CC(=O)O)NC(=O)[C@@H]2CCCN2C1=O [SEQ ID NO: 21] (H-DCAGFMRKCIPDNDKCCRPNLVCSRTHKWCKYVF-NH2; disulfide 2-17, 9-23, 16-30) | 12 nM | – | > 10000 nM | – | – | 19000 nM | 100 nM | 510 nM | –
3 | CC[C@H](C)[C@@H]1NC(=O)[C@@H]2CSSC[C@@H]3NC(=O)[C@H](C(C)C)NC(=O)[C@H](CC(C)C)NC(=O)[C@H](CC(N)=O)NC(=O)[C@@H]4CCCN4C(=O)[C@H](CCCNC(=N)N)NC(=O)[C@H](CSSC[C@H](NC(=O)[C@@H](N)CC(=O)O)C(=O)N[C@@H](CC(C)C)C(=O)NCC(=O)N[C@@H](Cc4ccccc4)C(=O)N[C@@H](CCSC)C(=O)N[C@@H](CCCNC(=NC)NC)C(=O)N[C@@H](CCCCN)C(=O)N2)NC(=O)[C@H](CSSC[C@@H](C(=O)N[C@@H](CCCCN)C(=O)N[C@@H](Cc2ccc(O)cc2)C(=O)N[C@H](C(=O)N[C@@H](Cc2ccccc2)C(N)=O)C(C)C)NC(=O)[C@H](Cc2c[nH]c4ccccc24)NC(=O)[C@H](CCCCN)NC(=O)[C@H](Cc2c[nH]cn2)NC(=O)[C@H]([C@@H](C)O)NC(=O)[C@H](CCCNC(=N)N)NC(=O)[C@H](CO)NC3=O)NC(=O)[C@H](CCCCN)NC(=O)[C@H](CC(=O)O)NC(=O)[C@H](CC(N)=O)NC(=O)[C@H](CC(=O)O)NC(=O)[C@@H]2CCCN2C1=O [[SDMA7]GpTx-1(1-34)] | 6 nM | 10300 nM | 14000 nM | 120 nM | 240 nM | – | – | – | –
4 | CC[C@H](C)[C@@H]1NC(=O)[C@@H]2CSSC[C@@H]3NC(=O)[C@H](C(C)C)NC(=O)[C@H](CC(C)C)NC(=O)[C@H](CC(N)=O)NC(=O)[C@@H]4CCCN4C(=O)[C@H](CCCNC(=N)N)NC(=O)[C@H](CSSC[C@H](NC(=O)[C@@H](N)CC(=O)O)C(=O)N[C@@H](CC(C)C)C(=O)NCC(=O)N[C@@H](Cc4ccccc4)C(=O)N[C@@H](CCSC)C(=O)N[C@@H](CCCNC(=N)N)C(=O)N[C@@H](CCCNC(=NC)NC)C(=O)N2)NC(=O)[C@H](CSSC[C@@H](C(=O)N[C@@H](CCCCN)C(=O)N[C@@H](Cc2ccc(O)cc2)C(=O)N[C@H](C(=O)N[C@@H](Cc2ccccc2)C(N)=O)C(C)C)NC(=O)[C@H](Cc2c[nH]c4ccccc24)NC(=O)[C@H](CCCCN)NC(=O)[C@H](Cc2c[nH]cn2)NC(=O)[C@H]([C@@H](C)O)NC(=O)[C@H](CCCNC(=N)N)NC(=O)[C@H](CO)NC3=O)NC(=O)[C@H](CCCCN)NC(=O)[C@H](CC(=O)O)NC(=O)[C@H](CC(N)=O)NC(=O)[C@H](CC(=O)O)NC(=O)[C@@H]2CCCN2C1=O [[SDMA8]GpTx-1(1-34)] (H-DCLGFMR[Arg(Me2s)]CIPDNDKCCRPNLVCSRTHKWCKYVF-NH2; disulfide 2-17, 9-23, 16-30) | 5 nM | 9050 nM | > 10000 nM | 200 nM | 200 nM | – | – | – | –
5 | CC[C@H](C)[C@@H]1NC(=O)[C@@H]2CSSC[C@@H]3NC(=O)[C@H](C(C)C)NC(=O)[C@H](CC(C)C)NC(=O)[C@H](CC(N)=O)NC(=O)[C@@H]4CCCN4C(=O)[C@H](CCCNC(=N)N)NC(=O)[C@H](CSSC[C@H](NC(=O)[C@@H](N)CC(=O)O)C(=O)N[C@@H](CC(C)C)C(=O)NCC(=O)N[C@@H](Cc4ccccc4)C(=O)N[C@@H](Cc4ccc(O)cc4)C(=O)N[C@@H](CCCNC(=N)N)C(=O)N[C@@H](CCCCN)C(=O)N2)NC(=O)[C@H](CSSC[C@@H](C(=O)N[C@@H](CCCCN)C(=O)N[C@@H](Cc2ccc(O)cc2)C(=O)N[C@H](C(=O)N[C@@H](Cc2ccccc2)C(N)=O)C(C)C)NC(=O)[C@H](Cc2c[nH]c4ccccc24)NC(=O)[C@H](CCCCN)NC(=O)[C@H](Cc2cnc[nH]2)NC(=O)[C@H]([C@@H](C)O)NC(=O)[C@H](CCCNC(=N)N)NC(=O)[C@H](CO)NC3=O)NC(=O)[C@H](CCCCN)NC(=O)[C@H](CC(=O)O)NC(=O)[C@H](CC(N)=O)NC(=O)[C@H](CC(=O)O)NC(=O)[C@@H]2CCCN2C1=O [SEQ ID NO: 286] (H-DCLGFYRKCIPDNDKCCRPNLVCSRTHKWCKYVF-NH2; disulfide 2-17, 9-23, 16-30) | 69 nM | – | 10000 nM | – | – | 6380 nM | 520 nM | – | 970 nM
6 | CC[C@H](C)[C@@H]1NC(=O)[C@@H]2CSSC[C@@H]3NC(=O)[C@H](C(C)C)NC(=O)[C@H](CC(C)C)NC(=O)[C@H](CC(N)=O)NC(=O)[C@@H]4CCCN4C(=O)[C@H](CCCNC(=N)N)NC(=O)[C@H](CSSC[C@H](NC(=O)[C@@H](N)CC(=O)O)C(=O)N[C@@H](CC(C)C)C(=O)NCC(=O)N[C@@H](Cc4ccccc4)C(=O)N[C@@H](CCSC)C(=O)N[C@@H](CCCNC(=N)N)C(=O)N[C@@H]([C@@H](C)O)C(=O)N2)NC(=O)[C@H](CSSC[C@@H](C(=O)N[C@@H](CCCCN)C(=O)N[C@@H](Cc2ccc(O)cc2)C(=O)N[C@H](C(=O)N[C@@H](Cc2ccccc2)C(N)=O)C(C)C)NC(=O)[C@H](Cc2c[nH]c4ccccc24)NC(=O)[C@H](CCCCN)NC(=O)[C@H](Cc2c[nH]cn2)NC(=O)[C@H]([C@@H](C)O)NC(=O)[C@H](CCCNC(=N)N)NC(=O)[C@H](CO)NC3=O)NC(=O)[C@H](CCCCN)NC(=O)[C@H](CC(=O)O)NC(=O)[C@H](CC(N)=O)NC(=O)[C@H](CC(=O)O)NC(=O)[C@@H]2CCCN2C1=O [[Thr8]GpTx-1(1-34)] (H-DCLGFMRTCIPDNDKCCRPNLVCSRTHKWCKYVF-NH2; disulfide 2-17, 9-23, 16-30) | 9 nM | 9860 nM | > 10000 nM | 150 nM | 350 nM | – | – | – | –

From patent US9340590B2 (priority 2011, dated 2016)
